Among the data in ChEMBL document CHEMBL2331341, “Determination of the α-conotoxin Vc1.1 binding site on the α9α10 nicotinic acetylcholine receptor” (J Med Chem, 2013) are IC50, Ratio IC50 and inhibition values, retold here.

Assay [1] deals with Nicotinic acetylcholine receptor alpha9/alpha10 (Rattus norvegicus, UniProt P43144+Q9JLB5). Description: Inhibition of rat alpha9/alpha10 nAChR expressed in Xenopus oocytes assessed as inhibition of acetylcholine-induced currents after 300 secs by two-electrode voltage clamp assay. Format: cell-based, Oocyte.
Nicotinic acetylcholine receptor alpha9/alpha10, sequence (P43144 whole entry): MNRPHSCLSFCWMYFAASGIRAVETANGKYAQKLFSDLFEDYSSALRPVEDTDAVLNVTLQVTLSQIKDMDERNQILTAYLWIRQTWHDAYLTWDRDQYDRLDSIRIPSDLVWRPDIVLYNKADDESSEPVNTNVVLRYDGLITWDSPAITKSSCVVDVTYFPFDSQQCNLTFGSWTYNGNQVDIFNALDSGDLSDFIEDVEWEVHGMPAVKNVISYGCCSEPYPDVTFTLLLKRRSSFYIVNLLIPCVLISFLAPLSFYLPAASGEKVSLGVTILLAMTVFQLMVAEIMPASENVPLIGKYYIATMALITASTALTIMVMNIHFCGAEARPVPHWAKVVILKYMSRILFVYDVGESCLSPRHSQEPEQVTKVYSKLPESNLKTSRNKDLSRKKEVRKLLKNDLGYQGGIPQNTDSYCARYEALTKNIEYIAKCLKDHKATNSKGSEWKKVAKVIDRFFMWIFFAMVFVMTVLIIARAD
Nicotinic acetylcholine receptor alpha9/alpha10, sequence (Q9JLB5 whole entry): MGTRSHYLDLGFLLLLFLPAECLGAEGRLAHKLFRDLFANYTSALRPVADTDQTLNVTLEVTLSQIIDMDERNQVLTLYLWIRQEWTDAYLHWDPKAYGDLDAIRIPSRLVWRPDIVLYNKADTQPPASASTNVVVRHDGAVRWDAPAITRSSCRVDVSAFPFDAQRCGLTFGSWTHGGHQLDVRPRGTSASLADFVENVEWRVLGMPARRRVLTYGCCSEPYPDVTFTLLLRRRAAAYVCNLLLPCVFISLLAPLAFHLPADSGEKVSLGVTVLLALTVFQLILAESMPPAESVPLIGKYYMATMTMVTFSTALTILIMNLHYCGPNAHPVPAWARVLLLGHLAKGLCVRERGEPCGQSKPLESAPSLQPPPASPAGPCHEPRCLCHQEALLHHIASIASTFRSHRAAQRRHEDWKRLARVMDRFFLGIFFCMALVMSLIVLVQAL
Assay [2] can be described thus: Selectivity ratio of IC50 for human alpha9 rat alpha10 nAChR to IC50 for rat alpha9/alpha10 nAChR.
Assay [3] is described as follows: Inhibition of human alpha9 rat alpha10 nAChR expressed in Xenopus oocytes assessed as inhibition of acetylcholine-induced currents after 300 secs by two-electrode voltage clamp assay. The class given is cell-based. The settings on record: Oocyte.
The test system of another assay is Oocyte. Description: Inhibition of human alpha9 rat alpha10 nAChR expressed in Xenopus oocytes assessed as inhibition of acetylcholine-induced currents at 100 nM after 300 secs by two-electrode voltage clamp assay. The class given is cell-based. Background: Two-electrode voltage clamp holds a large cell at a set potential and records current.

Structures are written as SMILES. Positions of bridges follow the written chain, without caps; N, C: chain ends. Residues, ends and D or L forms follow the SMILES beside them.

Regarding `CC[C@H](C)[C@@H]1NC(=O)[C@H](CCC(=O)O)NC(=O)[C@@H]2CCCN2C(=O)[C@H](Cc2cnc[nH]2)NC(=O)[C@H](CC(=O)O)NC(=O)[C@H](Cc2ccc(O)cc2)NC(=O)[C@H](CC(N)=O)NC(=O)[C@@H]2CSSC[C@H](NC(=O)CN)C(=O)N[C@@H](CSSC[C@@H](C(=O)O)NC1=O)C(=O)N[C@@H](CO)C(=O)N[C@@H](CC(=O)O)C(=O)N1CCC[C@H]1C(=O)N[C@@H](CCCNC(=N)N)C(=O)N2`, the IC50 in assay [1] amounted to 70 nM; in assay [3] it was 975 nM. Further, in assay [2], the Ratio IC50 worked out at 14.

As to `CC[C@H](C)[C@@H]1NC(=O)[C@H](CCC(=O)O)NC(=O)[C@@H]2CCCN2C(=O)[C@H](Cc2cnc[nH]2)NC(=O)[C@H](CC(=O)O)NC(=O)[C@H](Cc2ccccc2)NC(=O)[C@H](CC(N)=O)NC(=O)[C@@H]2CSSC[C@H](NC(=O)CN)C(=O)N[C@@H](CSSC[C@@H](C(=O)O)NC1=O)C(=O)N[C@@H](CO)C(=O)N[C@@H](CC(=O)O)C(=O)N1CCC[C@H]1C(=O)N[C@@H](CCCNC(=N)N)C(=O)N2` (H-GCCSDPRCNFDHPEIC-OH; disulfide 2-8, 3-16), the IC50 in assay [1] was 500 nM; in assay [3] it was 763 nM. In the assay on Oocyte, the inhibition was 10%.

As for `CC[C@H](C)[C@@H]1NC(=O)[C@H](CCC(=O)O)NC(=O)[C@@H]2CCCN2C(=O)[C@H](Cc2cnc[nH]2)NC(=O)[C@H](CC(=O)O)NC(=O)[C@H](Cc2c[nH]c3ccccc23)NC(=O)[C@H](CC(N)=O)NC(=O)[C@@H]2CSSC[C@H](NC(=O)CN)C(=O)N[C@@H](CSSC[C@@H](C(=O)O)NC1=O)C(=O)N[C@@H](CO)C(=O)N[C@@H](CC(=O)O)C(=O)N1CCC[C@H]1C(=O)N[C@@H](CCCNC(=N)N)C(=O)N2` (H-GCCSDPRCNWDHPEIC-OH; disulfide 2-8, 3-16), the IC50 in assay [1] was 43 nM; in assay [3] it was 33 nM. The inhibition in the assay with Oocyte turned out to be 80%.

As usually defined, the IC50 is the concentration needed to halve the response being measured. In general, inhibition refers to the share of the control response that was lost under treatment.
